# Activity calls are given as the source filed them. No cut-off for these calls is given here.
# Tests used:
# [1] = system: SW-620; assay: Antitumor activity against human SW620 cells xenografted in athymic mouse model assessed as complete tumor regression at 50 mg/kg measured after 17 to 94 days post tumor implantation by caliper method; type: functional, organism-based; conditions: time 17-94 day
# [2] = system: SW-620; assay: Antitumor activity against human SW620 cells xenografted in athymic mouse model assessed as tumor free survival at 50 mg/kg measured after 17 to 94 days post tumor implantation by caliper method; type: functional, organism-based; conditions: time 17-94 day
# [3] = system: SW-620; assay: Induction of cell cycle arrest in human SW620 cells assessed as increase in cdc25A level at 0.1 uM measured after 8 hrs by Western blot analysis; type: functional, cell-based
Structure (SMILES),Activity [1],Activity [2],Activity [3]
CCc1c2c(nc3ccc(OC(=O)N4CCC(N5CCCCC5)CC4)cc13)-c1cc3c(c(=O)n1C2)COC(=O)[C@]3(O)CC,inactive,inactive,
Nc1ccn([C@@H]2O[C@H](CO)[C@@H](O)C2(F)F)c(=O)n1,,,inactive

# Reference: ChEMBL document CHEMBL5678797, “AZD7762, a novel checkpoint kinase inhibitor, drives checkpoint abrogation and potentiates DNA-targeted therapies” (Mol Cancer Ther, 2008)
